Common to all, as to type: cell-based
One experiment deals with TNF-α production. Kind of experiment: Human TNF-α production suppression test (LPS-stimulated peripheral blood mononuclear cells, ELISA). Conditions: PBMC, compound 10 μg/mL, 24 hr, control well = 100, read-out: TNF-α production suppressive rate (%). Here is the method:
Example 50: Human TNF-α Production Suppression Test
Peripheral blood of a healthy adult was collected in a vacuum blood collection tube (Terumo, containing EDTA/2Na), and then diluted two-fold with an equal volume of OTSUKA NORMAL SALINE (Otsuka Pharmaceutical Co., Ltd.). The diluted blood was mixed with Lymphoprep (AXIS-SHIELD) in half the volume of the diluted blood, dispensed into a 15 mL conical tube, and centrifuged at room temperature for 20 min (2,100 rpm). The mononuclear cells accumulated at the interface between Lymphoprep and plasma was transferred to a 50 mL conical tube, diluted with OTSUKA NORMAL SALINE, and the mononuclear cells suspension was centrifuged at room temperature for 10 min (1,150 rpm) and then the supernatant was removed. The mononuclear cells fraction obtained as a precipitate was suspended in an appropriate amount of 10% fetal calf serum (Thermo Fisher Scientific)-containing RPMI1640 medium (Thermo Fisher Scientific, hereinafter abbreviated as medium A), and diluted as appropriate with 0.4% trypan blue solution (Sigma-Aldrich Co. LLC.). The number of viable cells was counted with a hemocytometer (ERMA INC.). It was diluted with medium A such that the value obtained was 5×10^5 cells/mL. On the other hand, 75 μL of medium A, 5 μL of 0.4 mg/mL test compound solution (DMSO solution 10-fold diluted with medium A), and 20 μL of 10 μg/mL lipopolysaccharide (Sigma-Aldrich Co. LLC.) solution (diluted with medium A) were each added in advance to the same well of a Falcon 96-well flat bottom plate (Corning Incorporated), and the above-mentioned cell suspension was dispensed at 0.1 mL/well. 5 μL of DMSO diluted 10-fold with medium A was added to the control well instead of the compound solution. After culturing at 37° C. in a 5% CO2 stream for 24 hr, the culture solution was centrifuged at 4° C., 1,000 rpm for 3 min and the supernatant was recovered. The content of TNF-α in the supernatant was measured using an ELISA kit (Peprotech) according to a conventional method. The amount of TNF-α produced in the well containing the test compound was determined with the amount of TNF-α produced in the control well as 100, and the suppression rate was calculated for each test.
Background: ELISA stands for enzyme-linked immunosorbent assay.

The next experiment has as its system MM.1S cells. Kind of experiment: Human myeloma cell line MM.1S proliferation suppression test. Conditions: MM1.S, 72 h, compound 10 μM, 3 days, WST-1 or WST-8, read-out: cell survival rate (% of control) MM.1S. The protocol: Example 51: Human Myeloma Cell Line MM.1S Proliferation Suppression Test
MM.1S cells (ATCC, CRL-2974) were suspended in 10% fetal calf serum (Thermo Fisher Scientific)-containing RPMI1640 medium (ATCC, hereinafter abbreviated as medium B), and diluted as appropriate with 0.4% trypan blue solution (Sigma-Aldrich Co. LLC.). The number of viable cells was counted with a hemocytometer (ERMA INC.). It was diluted with medium B such that the value obtained was 2×10^5 cells/mL. On the other hand, 50 μL of a solution obtained by diluting 4 mM DMSO solution of the test compound 200-fold with medium B was added to each well of a Falcon 96-well flat bottom plate (Corning Incorporated), and the above-mentioned cell suspension was dispensed at 50 μL/well (final concentration of test compound 10 μM). 50 μL of a solution obtained by diluting DMSO 200-fold with medium B was added to the control well. After culturing at 37° C. in a 5% CO2 stream for 3 days, the cell proliferation activity was measured using WST-1 (DOJINDO LABORATORIES) or WST-8 Kit (KISHIDA CHEMICAL Co., Ltd.) and according to each instruction manual attached thereto.
(In general: Tetrazolium assays rely on reduction of a dye to a coloured formazan, in cell work by metabolically active cells.)

For the next experiment, the system named is Pfeiffer cells. Kind of experiment: Human diffuse large B-cell lymphoma cell line Pfeiffer proliferation suppression test. Conditions: 144 h, compound 10 μM, 3 days + re-plating with compound 3 days, WST-8, read-out: cell survival rate (% of control) Pfeiffer. From the text:
Example 52: Human Diffuse Large B-Cell Lymphoma Cell Line Pfeiffer Proliferation Suppression Test
(§1) Pfeiffer cells (ATCC, CRL-2632) were suspended in medium B, and diluted as appropriate with 0.4% trypan blue solution (Sigma-Aldrich Co. LLC.). The number of viable cells was counted with a hemocytometer (Funakoshi Co., Ltd.). A cell suspension obtained by diluting with medium B such that the value obtained was 1.3×10^5 cells/mL was dispensed into a Falcon 96 well flat bottom plate (Corning Incorporated) at 75 μL/well, and culture was started at 37° C. under 5% CO2 stream. The next day, a solution obtained by diluting 4 mM DMSO solution of the test compound 100-fold with medium B was added by 25 μL to each well (final concentration of test compound 10 μM). 25 μL of a solution obtained by diluting DMSO 100-fold with medium B was added to the control well. After culturing at 37° C. in a 5% CO2 stream for 3 days, the cell culture medium was uniformly suspended with a multi channel pipette, 14 μL per well was transferred into another new Falcon 96 well flat bottom plate. A solution obtained by diluting 4 mM DMSO solution of the same test compound as the first time 400-fold with medium B was added by 86 μL to a total amount of 100 μL (final concentration of test compound 10 μM). After culturing at 37° C. in a 5% CO2 stream for 3 days, the cell proliferation activity was measured according to the instruction manual attached to WST-8 Kit (KISHIDA CHEMICAL Co., Ltd.).

In a further experiment the test system is REC-1 cells. Kind of experiment: Human mantle cell lymphoma cell line REC-1 proliferation suppression test. Conditions: Rec1, 72 h, compound 10 μM, 3 days, WST-8, read-out: cell survival rate (% of control) REC-1. Here is the method: Example 53: Human Mantle Cell Lymphoma Cell Line REC-1 Proliferation Suppression Test
as §1, with “REC-1” for “Pfeiffer”, “CRL-3004)” for “CRL-2632)”, “cell” for “cell culture medium was uniformly suspended with a multi channel pipette, 14 μL per well was transferred into another new Falcon 96 well flat bottom plate. A solution obtained by diluting 4 mM DMSO solution of the same test compound as the first time 400-fold with medium B was added by 86 μL to a total amount of 100 μL (final concentration of test compound 10 μM). After culturing at 37° C. in a 5% CO2 stream for 3 days, the cell”

Take `CCOc1cc(-c2cn(C3CCC(=O)NC3=O)nn2)cs1` (stereo not drawn) [compound 24, 3-[4-(5-ethoxythiophen-3-yl)-1H-1,2,3-triazol-1-yl]piperidine-2,6-dione]: the inhibition at 10 µg/mL in the experiment on TNF-α production was determined as 75%. Also, the viability at 10 µM in the experiment on MM.1S cells was found to be 63%; in the experiment on Pfeiffer cells it was 91%; in the experiment with REC-1 cells, 46%.
Taken in the same sequence, the figures for `COc1cscc1-c1cn(C2CCC(=O)NC2=O)nn1` (stereo not drawn) [compound 19, 3-[4-(4-methoxythiophen-3-yl)-1H-1,2,3-triazol-1-yl]piperidine-2,6-dione] were 83%, 24%, 11% and 4%.
Taken in the same sequence, the figures for `O=C1CCC(n2cc(-c3cscc3OCc3ccccc3)nn2)C(=O)N1` (stereo not drawn) [compound 32, 3-{4-[4-(benzyloxy)thiophen-3-yl]-1H-1,2,3-triazol-1-yl}piperidine-2,6-dione] were 100%, 27%, 60% and 15%.
In the same order, the values of `O=C1CCC(n2cc(-c3cscc3OCc3cc4ccccc4s3)nn2)C(=O)N1` (stereo not drawn) [compound 47, 3-{4-[4-(benzo[b]thiophen-2-ylmethoxy)thiophen-3-yl]-1H-1,2,3-triazol-1-yl}piperidine-2,6-dione] are 63%, 64%, 99% and 33%.
In the case of `Cc1cscc1-c1cn(C2CCC(=O)NC2=O)nn1` (stereo not drawn) [compound 7, 3-[4-(4-methylthiophen-3-yl)-1H-1,2,3-triazol-1-yl]piperidine-2,6-dione], the inhibition at 10 µg/mL in the experiment on TNF-α production was found to be 73%. The values for the viability at 10 µM in the experiment with MM.1S cells, with Pfeiffer cells and with REC-1 cells were 57%, 101% and 44%, respectively.
In the same order, the values of `O=C1CCC(n2cc(-c3cscc3OCc3cccnc3)nn2)C(=O)N1` (stereo not drawn) [compound 35, 3-{4-[4-(pyridin-3-ylmethoxy)thiophen-3-yl]-1H-1,2,3-triazol-1-yl}piperidine-2,6-dione] are 70%, 55%, 104% and 39%.
In the same order, the values of `C[C@@H]1CN(Cc2ccc(COc3cscc3-c3cn(C4CCC(=O)NC4=O)nn3)cc2)C[C@H](C)O1` (stereo partly drawn) [compound 38, 3-{4-[4-(4-{[(2S,6R)-2,6-dimethylmorpholino]methyl}benzyloxy)thiophen-3-yl]-1H-1,2,3-triazol-1-yl}piperidine-2,6-dione] are 89%, 24%, 29% and 5%.
Taken in the same sequence, the figures for `CCOc1cscc1-c1cn(C2CCC(=O)NC2=O)nn1` (stereo not drawn) [compound 17, 3-[4-(4-ethoxythiophen-3-yl)-1H-1,2,3-triazol-1-yl]piperidine-2,6-dione] were 92%, 32%, 72% and 23%.
As to `O=C1CCC(n2cc(-c3cscc3OCc3ccc(Cl)cc3)nn2)C(=O)N1` (stereo not drawn) [compound 43, 3-{4-[4-(4-chlorobenzyloxy)thiophen-3-yl]-1H-1,2,3-triazol-1-yl}piperidine-2,6-dione], the inhibition at 10 µg/mL in the experiment on TNF-α production turned out to be 87%. Moreover, the viability at 10 µM in the experiment on MM.1S cells came to 30%; in the experiment with Pfeiffer cells it was 89%; with REC-1 cells, 23%.
Taken in the same sequence, the figures for `COc1c(-c2cn(C3CCC(=O)NC3=O)nn2)csc1Br` (stereo not drawn) [compound 23, 3-[4-(5-bromo-4-methoxythiophen-3-yl)-1H-1,2,3-triazol-1-yl]piperidine-2,6-dione] were 62%, 75%, 97% and 70%.
`O=C1CCC(n2cc(-c3scc4c3OCCO4)nn2)C(=O)N1` (stereo not drawn) [compound 10, 3-[4-(2,3-dihydrothieno[3,4-b][1,4]dioxin-5-yl)-1H-1,2,3-triazol-1-yl]piperidine-2,6-dione]: in the experiment with TNF-α production, the inhibition at 10 µg/mL turned out to be 50%. The figures for the viability at 10 µM with MM.1S cells, in the experiment on Pfeiffer cells and with REC-1 cells were 78%, 113% and 57%, respectively.
In the same order, the values of `O=C1CCC(n2cc(-c3ccc(Cl)s3)nn2)C(=O)N1` (stereo not drawn) [compound 11, 3-[4-(5-chlorothiophen-2-yl)-1H-1,2,3-triazol-1-yl]piperidine-2,6-dione] are 81%, 63%, 114% and 56%.
In the same order, the values of `Cc1ccc(-c2cn(C3CCC(=O)NC3=O)nn2)s1` (stereo not drawn) [compound 5, 3-[4-(5-methylthiophen-2-yl)-1H-1,2,3-triazol-1-yl]piperidine-2,6-dione] are 71%, 66%, 98% and 53%.
In the same order, the values of `Cl.O=C1CCC(n2cc(-c3cscc3OCc3ccc(CCN4CCOCC4)cc3)nn2)C(=O)N1` (stereo not drawn) [compound 45, 3-(4-{4-[4-(2-morpholinoethyl)benzyloxy]thiophen-3-yl}-1H-1,2,3-triazol-1-yl)piperidine-2,6-dione hydrochloride] are 76%, 31%, 78% and 26%.
Turning to `O=C1CCC(n2nnc(-c3ccsc3)c2Cl)C(=O)N1` (stereo not drawn) [compound 4, 3-[5-chloro-4-(thiophen-3-yl)-1H-1,2,3-triazol-1-yl]piperidine-2,6-dione], the inhibition at 10 µg/mL in the experiment on TNF-α production is 67%. In addition, the viability at 10 µM was found to be 87% with MM.1S cells, 98% in the experiment with Pfeiffer cells and 93% in the experiment on REC-1 cells.

The values above are taken from patent US11299485B2, “Thiophene derivative and use thereof” (FUJIMOTO CO., LTD., priority 2018, dated 2022).
